Reference: patent publication EP0661259B1, “Substituted (5,6)-dihydronaphthalenyl compounds having retinoid-like activity” (BRISTOL-MYERS SQUIBB COMPANY, priority 1994, dated 1995)
Read-outs that look alike come from different tables or passages of the source.

Experiments:
lung line L2987 = assay: Cytotoxicity assay (alamarBlue viability); assay type: cell-based; details: Homo sapiens
Description: Figure 1, 2 and 3 are the cytotoxicity dose response curves for lung line L2987. […] Briefly, the assayed involved plating 1000 cells per well in a volume of 120 µL in a 96 well flat-bottom dish (Corning) on day -1. Twenty-four hours later the appropriate dilution of a compound of formula I was added in a volume of 30 µL complete medium (final volume 150 µL). The plates were sealed with a plate sealer (Dynatech Labs) to prevent evaporation. On day 5 the mylar film was removed and 15 µL of sterile alamarBlue was added to each well and the cells were incubated 37 °C 5% CO2 for two hours. Using a Vmax plate reader the optical density for each well was determined having the OD570 subtracted from the OD600. The 100% signal was determined for cells grown in complete medium containing only 0.5% DMSO. All wells were set-up in triplicate and the mean values were plotted in Figures 1, 2 and 3.

rhino mouse = assay: Rhino mouse utriculi reduction assay; assay type: in vivo, female hairless rhino mice (hr^rh/hr^rh); details: concentration to reach 30% utriculi reduction; topical in ethanol vehicle (50ul) to dorsal area once daily for 5 days; tested range 0.00033 mM to 16.5 mM
Description: Representatives from compounds of formula I were tested for their effect on utriculi reduction on rhino mouse and directly compared to all-trans retinoic acid.
Six to nine week old female hairless rhino mice (hr^rh/hr^rh) were produced in the Bristol-Myers Squibb colony. Test retinoids in ethanol vehicle (50ul) were applied to the dorsal area (approximately 1.5 x 3 cm^2) of rhino mice once daily for 5 days (Monday to Friday). For various retinoids, a dose response was obtained with concentrations ranging from 0.00033 mM to 16.5 mM. The animals were sacrificed on the following Monday by CO2 inhalation. A 7/8" full thickness punch was taken from the central dorsal area of each animal. The epidermis of the biopsy was removed from the dermis after incubation in 0.5% acetic acid overnight at 4°C. The separated epidermis was then fixed in formalin, dehydrated with ethanol, and cleared in xylene. To determine the utriculi diameter, each epidermis sheet was placed on a glass slide in xylene. For each specimen, the diameter of 40 utricules was measured with an image analysis system (IBM PC, Image Measure program and Olympus microscope with video camera). % Utriculi reduction was calculated as (1 -(utriculi diameter in the test group)/(utriculi diammeter in the ethanol control group))× 100% [formula] […]

[1] = L2987, L2987 experiment 2, 1000 cells per well, compound added after 24 h, read on day 5, read-out: IC50

Compound	IC50 (lung line L2987; [1])	ED30 (rhino mouse)	IC50 (lung line L2987; L2987)
CC1(C)CC=C(c2ccccc2)c2cc(C(=O)Nc3ccc(C(=O)O)cc3)ccc21 [I^4a]	28 µM	–	–
CC1(C)C=C(c2ccccc2)c2cc(C(=O)Nc3ccc(C(=O)O)cc3)ccc21 [I^30a, 4-[(1,1-Dimethyl-3-phenyl-1H-indene-5-carbonyl)amino]benzoic acid]	60 µM	2.35	–
CC1=C(/C=C/C(C)=C/C=C/C(C)=C/C(=O)O)C(C)(C)CCC1 [All trans retinoic acid, reference compound]	–	–	68 µM
CC1(C)C=C(c2ccccc2)c2cc(C=Cc3ccc(C(=O)O)cc3)ccc21 [I^33a, 4-[2-(1,1-dimethyl-3-phenyl-1H-inden-5-yl)vinyl]benzoic acid]	–	0.86	–
CC1(C)CC=C(c2ccccc2)c2cc(C(=O)Sc3ccc(C(=O)O)cc3)ccc21 [I^12a]	> 100 µM	–	–
CC1(C)CC=C(c2ccccc2)c2cc(COc3ccc(C(=O)O)cc3)ccc21 [I^26a, 4-[[[(5,6-Dihydro-5,5-dimethyl-8-phenyl)-2-naphthalenyl]methyl]oxy]benzoic acid]	48 µM	–	–
CC1(C)CC=C(c2ccccc2)c2cc(C(=O)Oc3ccc(C(=O)O)cc3)ccc21 [I^10a]	47 µM	–	–
